Source: patent US10717699B1, “Crotonyl alcohol cassic acid ester with antibacterial activity and a method of preparing the same” (SOUTHWEST UNIVERSITY, priority 2020, dated 2020)
Values after ≈ are worked out from the molar mass of the structure shown.

Key:
Type in all cases: cell-based
[1] = system: multidrug-resistant Pseudomonas aeruginosa MDR-PA 18-1774,18-202; assay: MIC by microbroth dilution method, MDR-PA strains; conditions: 37° C., 20-22 hours
Text: (§1) The minimal inhibitory concentration (MIC) of the compounds as determined by microbroth dilution method with gentamicin, cefazolin sodium and ceftriaxone sodium as positive control.
(§2) The experimental strains included methicillin-resistant Gram-positive bacteria: methicillin-resistant Staphylococcus aureus MRSA 18-222, 18-575; multiple drug-resistant […] bacteria: vancomycin-resistant enterococci VRE 18-80,18-94, multidrug-resistant Pseudomonas aeruginosa MDR-PA 18-1774,18-202, carbapenem-resistant Acinetobacter baumannii CR-AB 18-183,18-560. All the experimental strains were donated by Huashan Hospital affiliated to Fudan University (Institute of antibiotics, Fudan University) and used after routine identification.
(§3) Preparation of MHB medium: 20.0 g MHB medium was added to 1 L distilled water, boiled until completely dissolved, packed in conical bottles and sterilized at 121° C. for 15 min.
(§4) The experimental strain was cultured to the logarithmic growth phase: under aseptic condition, the experimental strain was inoculated into 100 mL MHB medium and incubated in a constant temperature and humidity incubator at 37° C. for 20-22 hours.
(§5) Preparation of storage solution: weigh the sample to be tested, dissolve it with 1% DMSO solution, prepare a storage solution with a concentration of 2560 μg/mL, weigh a positive reference substance, dissolve it with aseptic distilled water, and configure a storage solution with a concentration of 2560 μg/mL.
(§6) Preparation of bacterial suspension: under aseptic condition, the experimental strains cultured to logarithmic growth phase were adjusted to 0.5 MCF turbidity standard with MHB medium and diluted according to 1:10, and the bacterial suspension with concentration of 10^6 CFU/mL was prepared for standby.
(§7) Dilution of storage solution and inoculation of experimental strain: under aseptic condition, the storage solution was diluted to 256 μg/mL solution. Take a sterile 96-well plate, add 200 μL MHB medium to the 12th well, and add 100 μL MHB medium to each well. Add 100 μL of positive control solution to the first well, mix well, and suck 100 μL from it and discard. Add 100 μL of the compound sample solution to the second well, mix well, and then pipette 100 μL to the third well. After mixing, pipette 100 μL to the fourth well, and dilute to the 11th well in this way. Finally, 100 μL was pipetted from the 11th well and discarded. The 12th hole was the growth control without drugs. So far, the concentration of the positive reference substance is 128 μg/mL, the concentrations of the sample solution are 128, […], 8, 4, 2, 1, 0.5, 0.25 μg/mL respectively. Then, 10μL of the prepared bacterial suspension is added to each well, so that the final concentration of the bacterial liquid in each well is 5×10^5 CFU/mL.
(§8) Incubation: Cover the 96-well plate inoculated with the experimental strains, and incubate in a constant temperature and humidity box at 37° C. for 20-22 hours.

[2] = system: carbapenem-resistant Acinetobacter baumannii CR-AB 18-183,18-560; assay: MIC by microbroth dilution method, CR-AB strains; conditions: 37° C., 20-22 hours
Text: as §1, §2, §3, §4, §5, §6, §7, §8

[3] = system: methicillin-resistant Staphylococcus aureus MRSA 18-222, 18-575; assay: MIC by microbroth dilution method, MRSA strains; conditions: for Minimum bacteriostatic concentration: 37° C., 20-22 hours
Text: as §1, §2, §3, §4, §5, §6, §7, §8

[4] = system: vancomycin-resistant enterococci VRE 18-80,18-94; assay: MIC by microbroth dilution method, VRE strains; conditions: 37° C., 20-22 hours
Text: as §1, §2, §3, §4, §5, §6, §7, §8

[5] = system: drug-resistant bacteria; assay: Antibacterial activity test, summary over all experimental strains; conditions: summary of FIG. 1-6 and Table 1
Text: as §1, §2, §3
The experimental strain was cultured to the logarithmic growth phase: under aseptic condition, the experimental strain was inoculated into 100 mL MHB medium and incubated in a constant temperature and humidity incubator at 37° C. for 20-22 hours. […]

Compound | Minimum bacteriostatic concentration ([1]; strain MDR-PA 18-174) [µg/mL] | Minimum bacteriostatic concentration ([1]; strain MDR-PA 18-202) [µg/mL] | Minimum bacteriostatic concentration ([2]; strain CR-AB 18-183) [µg/mL] | Minimum bacteriostatic concentration ([2]; strain CR-AB 18-560) [µg/mL] | Minimum bacteriostatic concentration ([3]; strain MRSA 18-222) [µg/mL] | Minimum bacteriostatic concentration ([3]; strain MRSA 18-575) [µg/mL] | Minimum bacteriostatic concentration ([4]; strain VRE 18-80) [µg/mL] | Minimum bacteriostatic concentration ([4]; strain VRE 18-94) [µg/mL] | inhibitory effect on drug-resistant bacteria [5] | MIC ([3]; Staphylococcus aureus, drug-resistant Gram-positive bacteria MRSA, strain not given) [µg/mL]
CO/N=C(\C(=O)N[C@@H]1C(=O)N2C(C(=O)O)=C(CSc3nc(=O)c(=O)[nH]n3C)CS[C@H]12)c1csc(N)n1 [Ceftriaxone sodium, ceftriaxone sodium] | 128 | 16 | >128 | >128 | >128 | >128 | 8 | >128 |  | 
gentamicin | 0.0625 | 0.0625 | >128 | >128 | 128 | 2 | 0.0625 | >128 |  | 
O=C(O)c1cc(O)c2c(c1)C(=O)c1cccc(O)c1C2=O [Cassic acid] | >128 | >128 | >128 | >128 | >128 | >128 | >128 | >128 | no inhibitory effect | 
CC=CCO [Crotonyl alcohol, 2-butenol] | >128 | >128 | >128 | >128 | >128 | >128 | >128 | >128 | no inhibitory effect | 
C/C=C/COC(=O)c1cc(O)c2c(c1)C(=O)c1cccc(O)c1C2=O [Crotonyl alcohol cassic acid ester, (E)-but-2-en-1-yl 4,5-dihydroxy-9,10-dioxo-9,10-dihydroanthracene-2-carboxylate] | >128 | >128 | >128 | >128 | 4 | 4 | >128 | >128 |  | 4 (≈ 11.8 µM)
Cc1nnc(SCC2=C(C(=O)O)N3C(=O)[C@@H](NC(=O)Cn4cnnn4)[C@H]3SC2)s1 [Cefazolin sodium, cefazolin sodium] | 8 | 128 | >128 | >128 | >128 | >128 | 32 | >128 |  | 
